This note sets out measurements from US11497759B2, “Repurposcins: targeted inhibitors of mitochondrial biogenesis for eradicating cancer stem cells” (LUNELLA BIOTECH, INC., priority 2017, dated 2022).

The test system of this experiment is MCF-7 breast CSCs. As to the kind of experiment: Inhibition of mammosphere-forming activity of MCF-7 breast CSCs. The class given is cell-based, human. Particulars: treated for 5 days in mammosphere media, read-out: IC-50 for blocking CSC propagation (mammosphere-forming activity). An excerpt:
The black bars show 2,4-dichlorobenzyl-TPP; the inclined bars show 1-naphthylmethyl-TPP; the dotted bars show 3-methylbenzyl-TPP; the unshaded bars show 2-chlorobenzyl-TPP; and the horizontal lined bars show 2-butene-1,4-bis-TPP. […] Data are represented as mean+/−SEM.

As to `C(=CC[P+](c1ccccc1)(c1ccccc1)c1ccccc1)C[P+](c1ccccc1)(c1ccccc1)c1ccccc1` [2-butene-1,4-bis-TPP], the IC50 was under 500 nM.
